Experimental data from ChEMBL document CHEMBL5696442, “Discovery of type II inhibitors of TGFβ-activated kinase 1 (TAK1) and mitogen-activated protein kinase kinase kinase kinase 2 (MAP4K2)” (J Med Chem, 2015).
The source made the active and inactive calls. The rule behind the calls is not given here.

Columns and labels:
[1] = target: Tyrosine-protein kinase SYK (Homo sapiens) (UniProt P43405); test: Inhibition of SYK (unknown origin) at 10 uM by Ambit Kinomescan binding assay relative to control; values are per cent of control
[2] = target: Calcium/calmodulin-dependent protein kinase type 1D (Homo sapiens) (UniProt Q8IU85); test: Inhibition of CAMK1D (unknown origin) at 10 uM by Ambit Kinomescan binding assay relative to control
[3] = target: Serine/threonine-protein kinase Nek4 (Homo sapiens) (UniProt P51957); test: Inhibition of NEK4 K2 labeling site in human Huh-7 cells at 10 uM by KiNativ Profiling analysis relative to control; type: cell-based
[4] = target: Serine/threonine-protein kinase SIK1 (Homo sapiens) (UniProt P57059); test: Inhibition of SIK1 K2 labeling site in human Huh-7 cells at 10 uM by KiNativ Profiling analysis relative to control; type: cell-based
[5] = target: T1, Inhibitor of nuclear factor kappa-B kinase subunit alpha (Homo sapiens) (UniProt O15111); test: Inhibition of IKK-alpha (unknown origin) at 10 uM by Ambit Kinomescan binding assay relative to control; values are per cent of control
T1 sequence (whole entry): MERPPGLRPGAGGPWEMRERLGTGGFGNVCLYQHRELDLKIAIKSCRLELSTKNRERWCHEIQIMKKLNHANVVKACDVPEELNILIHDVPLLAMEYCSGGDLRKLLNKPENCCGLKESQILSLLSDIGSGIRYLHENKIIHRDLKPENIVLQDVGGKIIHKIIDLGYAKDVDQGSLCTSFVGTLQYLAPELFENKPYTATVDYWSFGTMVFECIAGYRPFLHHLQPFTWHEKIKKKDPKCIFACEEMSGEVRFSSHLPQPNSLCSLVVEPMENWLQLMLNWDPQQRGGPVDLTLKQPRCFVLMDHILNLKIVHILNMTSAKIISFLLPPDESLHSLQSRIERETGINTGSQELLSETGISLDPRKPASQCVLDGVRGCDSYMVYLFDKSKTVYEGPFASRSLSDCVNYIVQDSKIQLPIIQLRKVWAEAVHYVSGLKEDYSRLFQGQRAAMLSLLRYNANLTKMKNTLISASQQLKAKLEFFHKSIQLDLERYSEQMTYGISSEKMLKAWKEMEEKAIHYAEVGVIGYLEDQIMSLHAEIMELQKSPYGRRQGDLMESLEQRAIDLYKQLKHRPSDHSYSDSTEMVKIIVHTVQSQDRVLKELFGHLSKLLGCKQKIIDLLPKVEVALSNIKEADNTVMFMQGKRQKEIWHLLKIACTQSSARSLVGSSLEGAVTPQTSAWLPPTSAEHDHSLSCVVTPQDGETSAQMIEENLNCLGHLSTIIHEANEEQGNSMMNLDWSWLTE

RAW = test: Inhibition of LPS induced JNK1/2 phosphorylation in mouse RAW cells preincubated for 1 hr followed by LPS stimulation and measured after 30 mins by Western blot analysis; type: functional, cell-based; settings: dose 0.01-10 µM
[6] = target: Tyrosine-protein kinase receptor TYRO3 (Homo sapiens) (UniProt Q06418); test: Inhibition of TYRO3 (unknown origin) at 10 uM by Ambit Kinomescan binding assay
[7] = target: Serine/threonine-protein kinase PLK1 (Homo sapiens) (UniProt P53350); test: Inhibition of PLK1 Lys1 labeling site harbouring CFEISDADTKEVFAGKIVPK in human Huh-7 cell lysate at 1 uM by KiNativ Profiling analysis relative to control; type: subcellular
[8] = target: Cyclin-dependent kinase 17 (Homo sapiens) (UniProt Q00537); test: Inhibition of PCTAIRE2 Lys2 labeling site in human Huh-7 cell lysate at 1 uM by KiNativ Profiling analysis relative to control; type: subcellular
[9] = target: T2, Dual specificity mitogen-activated protein kinase kinase 5 (Homo sapiens) (UniProt Q13163); test: Inhibition of MEK5 (unknown origin) at 1 uM by Ambit Kinomescan binding assay relative to control; values are per cent of control
T2 sequence (whole entry): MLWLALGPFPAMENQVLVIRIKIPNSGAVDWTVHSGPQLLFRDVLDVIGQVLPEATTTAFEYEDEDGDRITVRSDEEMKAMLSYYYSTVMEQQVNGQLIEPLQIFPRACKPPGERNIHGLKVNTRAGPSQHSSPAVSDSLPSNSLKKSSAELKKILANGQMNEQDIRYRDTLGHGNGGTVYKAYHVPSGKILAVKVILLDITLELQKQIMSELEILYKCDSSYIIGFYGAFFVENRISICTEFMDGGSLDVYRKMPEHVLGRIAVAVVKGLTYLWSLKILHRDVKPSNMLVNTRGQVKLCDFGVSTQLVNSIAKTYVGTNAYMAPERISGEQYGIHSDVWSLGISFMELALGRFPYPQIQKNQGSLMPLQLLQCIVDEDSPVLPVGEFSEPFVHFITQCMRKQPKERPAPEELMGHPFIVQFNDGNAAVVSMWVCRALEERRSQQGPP

[10] = target: TGF-beta receptor type-1 (Homo sapiens) (UniProt P36897); test: Inhibition of TGFBR1 (unknown origin) at 1 uM by Ambit Kinomescan binding assay relative to control
[11] = target: Serine/threonine-protein kinase 4 (Homo sapiens) (UniProt Q13043); test: Inhibition of MST1 Lys1 labeling site harbouring ETGQIVAIKQVPVESDLQEIIK in human A-375 cells at 0.5 uM by KiNativ Profiling analysis relative to control
[12] = target: Cyclin-dependent kinase-like 2 (Homo sapiens) (UniProt Q92772); test: Inhibition of CDKL2 (unknown origin) at 1 uM by Ambit Kinomescan binding assay relative to control; values are per cent of control
[13] = system: Mast/stem cell growth factor receptor Kit (Homo sapiens), P10721 [V559D]; test: Inhibition of KIT V559D mutant (unknown origin) at 1 uM by Ambit Kinomescan binding assay relative to control; values are per cent of control
[14] = target: Glycogen synthase kinase-3 beta (Homo sapiens) (UniProt P49841); test: Inhibition of GSK3B Lys2 labeling site in human A-375 cells at 5 uM by KiNativ Profiling analysis relative to control; type: cell-based
[15] = target: Tyrosine-protein kinase Fyn (Homo sapiens) (UniProt P06241); test: Inhibition of FYN ACT labeling site in human A-375 cells at 0.05 uM by KiNativ Profiling analysis relative to control; type: cell-based
[16] = target: TGF-beta receptor type-2 (Homo sapiens) (UniProt P37173); test: Inhibition of TGFBR2 (unknown origin) at 1 uM by Ambit Kinomescan binding assay relative to control
[17] = target: Aurora kinase B (Homo sapiens) (UniProt Q96GD4); test: Inhibition of AURKB (unknown origin) at 1 uM by Ambit Kinomescan binding assay relative to control
[18] = target: Serine/threonine-protein kinase tousled-like 2 (Homo sapiens) (UniProt Q86UE8); test: Inhibition of TLK2 Lys1 labeling site in human A-375 cells at 0.5 uM by KiNativ Profiling analysis relative to control; type: cell-based
Chain of Serine/threonine-protein kinase tousled-like 2 (Homo sapiens) (Q86UE8 whole entry, looked up): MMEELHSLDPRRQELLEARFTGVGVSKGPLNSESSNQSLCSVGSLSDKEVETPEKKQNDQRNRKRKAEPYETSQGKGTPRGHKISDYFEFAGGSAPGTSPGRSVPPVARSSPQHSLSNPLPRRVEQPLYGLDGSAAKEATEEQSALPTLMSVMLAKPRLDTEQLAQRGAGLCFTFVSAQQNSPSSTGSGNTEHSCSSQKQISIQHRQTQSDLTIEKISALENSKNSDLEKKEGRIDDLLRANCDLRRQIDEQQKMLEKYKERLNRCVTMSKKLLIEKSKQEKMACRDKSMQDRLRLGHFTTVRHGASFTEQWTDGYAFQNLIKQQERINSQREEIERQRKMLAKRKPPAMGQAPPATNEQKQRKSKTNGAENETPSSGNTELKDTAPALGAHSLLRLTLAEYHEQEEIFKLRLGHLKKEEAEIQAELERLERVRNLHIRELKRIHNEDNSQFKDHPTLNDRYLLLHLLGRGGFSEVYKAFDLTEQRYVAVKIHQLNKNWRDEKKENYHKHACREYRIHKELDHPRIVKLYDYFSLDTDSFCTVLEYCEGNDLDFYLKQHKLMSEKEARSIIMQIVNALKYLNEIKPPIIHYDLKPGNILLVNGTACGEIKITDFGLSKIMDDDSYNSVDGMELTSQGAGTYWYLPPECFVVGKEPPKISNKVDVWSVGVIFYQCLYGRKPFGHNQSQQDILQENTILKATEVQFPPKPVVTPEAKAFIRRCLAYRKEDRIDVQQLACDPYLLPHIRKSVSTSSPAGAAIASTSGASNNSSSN

Chain of Aurora kinase B (Homo sapiens) (Q96GD4 whole entry): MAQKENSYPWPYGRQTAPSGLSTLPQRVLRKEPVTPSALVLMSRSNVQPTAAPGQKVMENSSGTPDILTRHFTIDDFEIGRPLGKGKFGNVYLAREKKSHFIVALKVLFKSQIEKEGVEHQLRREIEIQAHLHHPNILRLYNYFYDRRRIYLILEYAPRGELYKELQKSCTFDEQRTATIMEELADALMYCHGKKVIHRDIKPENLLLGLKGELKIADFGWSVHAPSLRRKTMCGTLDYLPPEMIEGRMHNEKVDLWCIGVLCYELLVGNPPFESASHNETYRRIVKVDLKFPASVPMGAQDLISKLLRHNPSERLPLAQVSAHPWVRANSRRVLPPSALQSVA
Chain of TGF-beta receptor type-2 (Homo sapiens) (P37173 whole entry): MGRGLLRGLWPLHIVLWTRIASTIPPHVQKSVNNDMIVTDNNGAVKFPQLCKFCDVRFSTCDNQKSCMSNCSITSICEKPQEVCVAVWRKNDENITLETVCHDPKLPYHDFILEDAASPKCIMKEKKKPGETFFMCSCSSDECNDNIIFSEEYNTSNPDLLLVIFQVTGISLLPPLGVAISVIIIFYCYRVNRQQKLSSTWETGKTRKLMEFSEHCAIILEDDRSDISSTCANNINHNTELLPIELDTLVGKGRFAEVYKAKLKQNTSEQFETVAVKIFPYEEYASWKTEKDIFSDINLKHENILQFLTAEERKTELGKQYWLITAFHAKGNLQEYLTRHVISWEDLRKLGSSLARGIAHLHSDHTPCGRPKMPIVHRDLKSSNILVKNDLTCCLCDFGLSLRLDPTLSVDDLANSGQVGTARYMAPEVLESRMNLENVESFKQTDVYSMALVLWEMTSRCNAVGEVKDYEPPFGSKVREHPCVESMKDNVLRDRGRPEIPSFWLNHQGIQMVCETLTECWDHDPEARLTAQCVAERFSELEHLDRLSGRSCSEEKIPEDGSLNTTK
Chain of Cyclin-dependent kinase-like 2 (Homo sapiens) (Q92772 whole entry): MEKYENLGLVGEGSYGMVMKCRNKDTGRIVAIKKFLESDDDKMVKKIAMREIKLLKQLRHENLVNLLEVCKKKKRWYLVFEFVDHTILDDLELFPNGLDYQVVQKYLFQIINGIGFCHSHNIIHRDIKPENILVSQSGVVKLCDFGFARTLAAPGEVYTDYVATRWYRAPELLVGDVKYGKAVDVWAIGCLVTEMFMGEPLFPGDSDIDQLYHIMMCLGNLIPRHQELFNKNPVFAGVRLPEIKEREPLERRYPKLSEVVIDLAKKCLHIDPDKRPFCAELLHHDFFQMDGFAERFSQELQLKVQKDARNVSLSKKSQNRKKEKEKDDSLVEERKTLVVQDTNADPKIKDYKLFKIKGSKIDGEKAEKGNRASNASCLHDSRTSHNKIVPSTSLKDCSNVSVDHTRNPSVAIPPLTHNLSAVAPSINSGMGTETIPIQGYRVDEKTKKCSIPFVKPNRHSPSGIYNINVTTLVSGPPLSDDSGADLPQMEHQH
Chain of Tyrosine-protein kinase receptor TYRO3 (Homo sapiens) (Q06418 whole entry): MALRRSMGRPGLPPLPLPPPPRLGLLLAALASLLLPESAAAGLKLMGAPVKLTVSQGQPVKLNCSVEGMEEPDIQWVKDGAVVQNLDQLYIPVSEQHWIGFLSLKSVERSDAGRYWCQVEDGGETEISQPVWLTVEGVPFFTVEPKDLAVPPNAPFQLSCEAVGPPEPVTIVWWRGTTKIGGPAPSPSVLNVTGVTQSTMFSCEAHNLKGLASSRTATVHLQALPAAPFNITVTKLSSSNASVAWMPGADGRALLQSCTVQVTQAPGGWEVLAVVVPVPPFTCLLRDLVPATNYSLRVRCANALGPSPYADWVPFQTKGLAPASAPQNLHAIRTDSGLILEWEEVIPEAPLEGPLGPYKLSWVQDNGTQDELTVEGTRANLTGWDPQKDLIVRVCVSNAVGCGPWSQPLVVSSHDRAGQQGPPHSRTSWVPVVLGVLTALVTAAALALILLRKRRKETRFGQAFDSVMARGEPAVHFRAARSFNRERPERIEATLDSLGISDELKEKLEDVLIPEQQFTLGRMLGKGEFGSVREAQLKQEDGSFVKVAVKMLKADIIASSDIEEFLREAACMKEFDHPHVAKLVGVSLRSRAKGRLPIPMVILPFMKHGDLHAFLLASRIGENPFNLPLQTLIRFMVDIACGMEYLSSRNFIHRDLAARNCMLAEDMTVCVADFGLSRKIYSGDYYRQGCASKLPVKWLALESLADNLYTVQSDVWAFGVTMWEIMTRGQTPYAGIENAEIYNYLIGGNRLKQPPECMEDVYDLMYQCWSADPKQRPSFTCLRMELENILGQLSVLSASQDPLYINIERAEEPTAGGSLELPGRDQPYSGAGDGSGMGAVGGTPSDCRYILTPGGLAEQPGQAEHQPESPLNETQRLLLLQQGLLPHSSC
Chain of Mast/stem cell growth factor receptor Kit (Homo sapiens), P10721 [V559D] (P10721 whole entry V559D): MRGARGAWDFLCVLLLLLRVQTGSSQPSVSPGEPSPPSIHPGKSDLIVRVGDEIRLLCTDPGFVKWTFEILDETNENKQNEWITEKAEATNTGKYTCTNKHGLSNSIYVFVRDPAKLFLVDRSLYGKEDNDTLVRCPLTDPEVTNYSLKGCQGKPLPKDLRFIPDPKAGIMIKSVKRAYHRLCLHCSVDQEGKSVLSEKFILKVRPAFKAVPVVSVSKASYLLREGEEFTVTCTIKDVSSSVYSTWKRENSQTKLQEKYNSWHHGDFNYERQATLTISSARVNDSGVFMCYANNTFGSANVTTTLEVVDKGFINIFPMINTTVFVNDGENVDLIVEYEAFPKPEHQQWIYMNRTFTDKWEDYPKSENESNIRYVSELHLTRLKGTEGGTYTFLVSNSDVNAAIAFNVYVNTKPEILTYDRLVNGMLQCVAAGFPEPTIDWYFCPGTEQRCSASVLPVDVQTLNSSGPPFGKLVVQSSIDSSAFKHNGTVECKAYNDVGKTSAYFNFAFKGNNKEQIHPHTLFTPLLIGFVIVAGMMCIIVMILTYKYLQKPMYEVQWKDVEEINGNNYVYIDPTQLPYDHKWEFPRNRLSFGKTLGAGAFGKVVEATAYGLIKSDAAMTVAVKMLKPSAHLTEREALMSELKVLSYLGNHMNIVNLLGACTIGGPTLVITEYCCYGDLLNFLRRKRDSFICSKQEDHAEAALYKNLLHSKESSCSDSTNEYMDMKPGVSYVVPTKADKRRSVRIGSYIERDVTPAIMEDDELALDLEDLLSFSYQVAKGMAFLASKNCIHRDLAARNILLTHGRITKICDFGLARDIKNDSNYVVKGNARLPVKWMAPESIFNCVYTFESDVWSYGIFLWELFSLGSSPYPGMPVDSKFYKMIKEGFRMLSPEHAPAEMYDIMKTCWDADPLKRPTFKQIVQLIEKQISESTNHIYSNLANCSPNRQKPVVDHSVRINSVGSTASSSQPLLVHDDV
Chain of Cyclin-dependent kinase 17 (Homo sapiens) (Q00537 whole entry, looked up): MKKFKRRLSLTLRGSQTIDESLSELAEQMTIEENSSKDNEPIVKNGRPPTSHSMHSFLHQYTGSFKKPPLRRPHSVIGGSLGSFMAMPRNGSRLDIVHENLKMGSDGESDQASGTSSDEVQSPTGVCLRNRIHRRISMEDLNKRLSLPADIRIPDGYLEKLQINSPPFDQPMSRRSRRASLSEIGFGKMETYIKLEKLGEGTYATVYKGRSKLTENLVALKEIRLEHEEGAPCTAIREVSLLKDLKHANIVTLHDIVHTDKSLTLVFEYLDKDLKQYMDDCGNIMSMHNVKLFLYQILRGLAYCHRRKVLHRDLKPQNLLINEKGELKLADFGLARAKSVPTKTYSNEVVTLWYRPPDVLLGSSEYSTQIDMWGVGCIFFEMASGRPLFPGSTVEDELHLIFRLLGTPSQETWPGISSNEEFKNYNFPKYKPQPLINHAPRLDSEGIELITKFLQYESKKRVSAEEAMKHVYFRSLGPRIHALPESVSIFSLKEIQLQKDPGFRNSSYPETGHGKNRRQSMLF
Chain of Calcium/calmodulin-dependent protein kinase type 1D (Homo sapiens) (Q8IU85 whole entry, looked up): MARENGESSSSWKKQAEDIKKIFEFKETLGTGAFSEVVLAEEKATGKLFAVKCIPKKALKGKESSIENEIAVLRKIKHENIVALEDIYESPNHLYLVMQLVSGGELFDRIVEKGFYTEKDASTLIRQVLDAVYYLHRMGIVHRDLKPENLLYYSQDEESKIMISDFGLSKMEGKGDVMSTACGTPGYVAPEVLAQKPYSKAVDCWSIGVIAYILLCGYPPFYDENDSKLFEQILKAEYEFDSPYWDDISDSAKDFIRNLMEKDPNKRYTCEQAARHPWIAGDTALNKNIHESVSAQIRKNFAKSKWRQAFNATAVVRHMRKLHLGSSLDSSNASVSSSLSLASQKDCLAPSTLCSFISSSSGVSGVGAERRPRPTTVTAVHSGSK

Work on `CCN1CCN(Cc2ccc(NC(=O)c3ccc(C)c(Oc4ccnc5[nH]ccc45)c3)cc2C(F)(F)F)CC1` yielded a residual activity [1] of 6.2%, an inhibition [2] of 6.2% and an inhibition [3] of 11.4%. For the same molecule, the inhibition [4] was 6.6%, the percent of control [5] was 0.95% and the inhibition (RAW) was “Dose-Dependent Effect”. For the same molecule, the inhibition [6] was “inactive”.
In the case of `CNc1cc(Oc2cc(C(=O)Nc3cc(N4CCN(C)CC4)cc(C(F)(F)F)c3)ccc2C)ncn1`, the inhibition [7] is reported as 1% and the inhibition [8] is reported as -2.1%.
Molecule `CCN1CCN(Cc2ccc(NC(=O)c3ccc(C)c(/C=C/c4cnc5[nH]ccc5c4OC)c3)cc2C(F)(F)F)CC1` has a residual activity [9] of 1.4%, an inhibition [10] of 100% and an inhibition [11] of 17.4%. For the same molecule, the residual activity [12] was 4.2%, the residual activity [13] was 0.05% and the inhibition [14] was 34.6%. The inhibition [15] was 38.9%, the inhibition [16] was 52% and the inhibition [17] was 65%. The inhibition [18] was 30.2%.
